“Also recorded” adds a separate entry of the source.
How the values were obtained:
[1] = UV-visible absorption and fluorescence spectra of the dyes of the invention; assay type: physicochemical
Protocol: UV-visible absorption spectra were recorded on a Varian Cary 4000 UV-Vis spectrophotometer, and fluorescence spectra on a Varian Cary Eclipse fluorescence spectrophotometer. Reactions were carried out upon magnetic stirring in Schlenk flasks equipped with septa or reflux condensers with bubble-counters under argon using a standard manifold with vacuum and argon lines. All NMR spectra are referenced to tetramethylsilane as an internal standard (δ=0 ppm) using the signals of the residual protons of CHCl3 (7.26 ppm) in CDCl3, CHD2OD (3.31 ppm) in CD3OD, HOD (4.75 ppm) in D2O, [D5]acetone (2.04 ppm) in [D6]acetone or [D5]DMSO (2.50 ppm) in [D6]DMSO. Multiplicities of signals are described as follows: s=singlet, br. s=broad singlet, d=doublet, t=triplet, q=quartet, quint=quintet, m=multiplet, mc=centrosymmetrical multiplet. Coupling constants (J) are given in Hz. Multiplicities in the ^13C NMR spectra were determined by APT (Attached Proton Test) measurements. Low resolution mass spectra (electro spray ionization, ESI) were obtained with LCQ and ESI-TOF mass-spectrometers (MICROTOF (focus), Fa. Bruker). The MICROTOF spectrometer equipped with ESI ion source Apollo and direct injector with LC autosampler Agilent RR 1200 was used for obtaining high resolution mass spectra (ESI-HRMS). ESI-HRMS were obtained also on APEX IV spectrometer (Bruker). HPLC system (Knauer): Smartline pump 1000 (2×), UV detector 2500, column thermostat 4000 (25° C.), mixing chamber, injection valve with 20 and 100 μL loop for the analytical and preparative columns, respectively; 6-port-3-channel switching valve; analytical column: Eurospher-100 C18, 5 μm, 250×4 mm, 1.1 mL/min; preparative column: Eurospher-100-5 C18, 5 μm, 250×8 mm, 3.7 mL/min; solvent A: water+0.1% v/v trifluoroacetic acid (TFA); solvent B: MeCN+0.1% v/v TFA; detection at 636 nm (if not stated otherwise). Normal phase analytical TLC was performed on MERCK ready-to-use plates with silica gel 60 (F254) and reversed phase TLC—on RP-18W/UV254 precoated TLC plates (Macherey-Nagel). Preparative TLC was performed on MERCK HPTLC silica gel 60 plates (10×10 cm, layer thickness 0.2 mm). Column chromatography: MERCK silica gel, grade 60, 0.04-0.063 mm or Polygoprep 60-50 C18 (Macherey-Nagel).

[2] = Fluorescence quantum yield, Atto 633 as reference; assay type: physicochemical; conditions: Atto 633 as reference (Φfl = 64% in aqueous buffer)
Description: Moreover, intersystem crossing rates (kISC) and rates of the T1→S0 transitions were also found to be the same for both deuterated and undeuterated substances (see ref. to Table 2).

[3] = Excited state lifetime and FCS study under single molecule conditions; assay type: physicochemical
[4] = Conjugation with antibodies: labelling degree and quantum yield of conjugates; assay type: physicochemical
Description: The degree of labelling achieved with antibodies may strongly vary; typically, compounds 6/6D (taken as their NHS esters 9/9D) attached to the anti-rabbit and anti-mouse antibodies produced a labelling degree from 2.5 up to 6. […] Decrease in fluorescence quantum yields after conjugation with antibodies is normal and well documented [cf.: V. P. Boyarskiy, V. N. Below, R. Medda, B. Hein, M. Bossi, S. W. Hell, Chem. Eur. J. 2008, 14, 1784-1792].

[5] = Bleaching measurements by pump-probe cycles; assay type: physicochemical; conditions: 50 pump-probe cycles, pump intensity 18 kW/cm^2, 633 nm CW, 10 ms pulses, air-oxygen
Protocol: The degree of photodecomposition was evaluated by measuring the decrease in the fluorescence intensity of compound 6 (FIG. 5). […] The pulse duration was 10 ms, and the pulse power 18.3 kW/cm^2 (633 nm CW laser light). Photostability of compound 6 is strong: 50 pump-probe cycles with a pump intensity of 18 kW/cm^2 only bleach 25% of the ensemble allowing for a high number of single-molecule returns, i.e. a high number of single-molecule localizations and thus a final image with high contrast.

[6] = Ground state depletion studies (pump-probe mode); assay type: physicochemical
Description: The compound 6 is excellent for super-resolution far-field microscopy based on ground-state depletion, such as GSDIM (ground-state depletion followed by individual molecule return; J. Fölling et. al, Nature Meth. 2008, 5, 943-945). Here, “off” and “on” switching of the fluorescence is achieved by transiently shelving the fluorophore into a metastable dark state. Upon the return of only a few isolated single molecules to the fluorescent singlet state, positions of these single light emitting spots can be imaged on a camera and localized with high precision. Upon repeating this procedure and acquiring many pictures, a super-resolution image can be reconstructed from the localized positions. A prerequisite of this method is that >90% of the ensemble of the applied fluorescent dye can be shelved into a dark state at a time (to ensure the detection of isolated fluorescent spots at a time in a densely labeled sample) and that the fluorophore is bright enough, i.e., that it emits enough photons while being in the singlet on-state (to ensure high precision of localization). […] Switching off of the laser leads to a recovery of the fluorescence ensemble within a characteristic recovery time of 50 ms (FIG. 7), indicating the shelving into a metastable dark state. The measurements of FIGS. 6 and 7 were performed in a pump-probe mode, i.e., the residual level of fluorescence was probed with I=100 W/cm^2 for 0.5 ms after strong irradiation for 10 ms with the given laser intensity. Further on, recovery of the fluorescence can be accelerated by addition of UV light, which leads to an optically-induced de-population of the dark states. Already 2 kW/cm^2 of 375 nm light recovers 60% of the fluorescence within an irradiation period of 1 ms (FIG. 8). This is important in cases of samples of low label density where the addition of UV light and thus acceleration of dark state return helps to accelerate image acquisition.

[7] = Chemical and storage stability of dyes and reactive derivatives; assay type: physicochemical
physchem = conditions: water
[8] = Solubility and polarity of the dyes

CN(CCC(=O)O)C(=O)c1c(F)c(F)c(F)c(F)c1C1=c2cc3c4c(c2Oc2c1cc1c5c2CCCN5C(C)(C)C=C1CS(=O)(=O)O)CCC[N+]=4C(C)(C)C=C3CS(=O)(=O)[O-] [Compound 6]
Stokes shift ([1]; dyes of the invention): 23 nm
ε · 10^−5 ([1]; solvent H2O): 0.94 M^−1 cm^−1
λmax (abs.) ([1]; solvent H2O): 637 nm
λmax (fl.) ([1]; solvent H2O): 660 nm
Φfl in water [2]: 80%
τfl (excited state lifetime) [3]: 3.57^20 ns
fluorescence quantum yield of the conjugate ([4]; conjugate with goat anti-rabbit antibodies): 40%
fluorescence quantum yield of the conjugate ([4]; conjugate with sheep anti-mouse antibodies): 48%
fraction of the ensemble bleached [5]: 25%
fluorescence recovered by UV light ([6]; 2 kW/cm^2 of 375 nm light, irradiation period 1 ms): 60%
extent of ground state depletion ([6]; 633 nm laser pulses, ca. 12 kW/cm^2): 97±3%
fluorophores switched off at a time ([6]; I>10 kW/cm^2 CW 633 nm, poly(vinyl alcohol) matrix): 97%
stability in methanol or methanol-containing solutions [7]: formed the corresponding methyl ester; also recorded: rapid esterification of the β-alanine fragment with methanol
solubility (physchem): > 100 mM
polarity [8]: polar; also recorded: hydrophilic
solubility in organic solvents [8]: insoluble in diethyl ether, aliphatic, chlorinated, and aromatic hydrocarbons
solubility in water or aqueous buffers [8]: soluble in water; also recorded: soluble in water or aqueous buffers
solubility in water ([8]; room temperature): 40-45 mg in 1 mL

From patent publication US8580579B2, “Hydrophilic and lipophilic rhodamines for labelling and imaging” (Max-Planck-Gesellschaft zur Foerderung der Wissenschaften …, priority 2009, dated 2013)
